Reference: patent US20210379085A1, “HALOGENATED SALICYLANILIDES FOR TREATING THE SYMPTOMS OF DERMATITIS” (Union Therapeutics A/S, priority 2018, published 2021)

How the values were obtained:
[1] = Systemic exposure to niclosamide (serum) after topical application in healthy volunteers; type: in vivo; conditions: human, after topical niclosamide formulations twice daily 7 days and final dose Day 8
Procedure: The skin biopsies were taken using sterile single use disposable biopsy punches (BP40F, Kai Europe GmbH, Solingen, Germany). For the 6 non-treated healthy volunteers biopsies were taken on Day 1. 10 mL of blood was collected at day 1 for the method validation group to determine niclosamide concentration in the blood.

[2] = system: lesional skin of patients with moderate atopic dermatitis; assay: Skin thickness in lesional skin biopsies, Phase II atopic dermatitis study (Example 3); type: in vivo, human; conditions: Day 22, compared to baseline and compared to vehicle; topical niclosamide 2% once daily 3 weeks
Procedure: (§1) Patients received topical applications of a niclosamide 2% composition and vehicle once daily for 3 weeks, followed by a 1-week follow up period. Topical niclosamide 2% and vehicle was applied on two separate target lesions of atopic dermatitis (lesions of at least 3×3-cm that are at least 2 cm apart, excluding the face, scalp, genitals, hands, and feet). The application areas (5×5-cm) were randomized (1:1) to once daily application of niclosamide 2% or vehicle at 5 mg/cm^2 without occlusion 6 days per week. Patients came to the study site for all study product application for a total of 3 weeks.
Three skin biopsies were collected in all patients (one from lesional skin at baseline, pre-dosing at Day 1, and two from lesional skin at Day 22 (one where topical niclosamide 2% had been applied and one where the vehicle had been applied). The lesional skin biopsies were analysed for skin thickness and inflammation biomarkers.

[3] = system: skin barrier and inflammation biomarkers in lesional skin biopsies; assay: qRT-PCR (TLDA) biomarker gene expression in lesional skin biopsies (Example 3); type: in vivo, human; conditions: fold change, topical niclosamide 2% once daily 3 weeks, AD lesional skin
Procedure: as §1
Skin barrier and inflammation biomarker levels were determined from lesional skin biopsies from application areas.
The skin biopsy samples were analysed by immunohistochemistry (IHC), and by gene expression studies by RT-PCR using TaqMan Low Density Array (TLDA), and by microarray using Affymetrix U133A Plus 2. The immunohistochemistry (IHC) was used to analyse cell biomarkers. The methodologies as disclosed by Guttman-Yassky et al, “Major differences in inflammatory dendritic cells and their products distinguish atopic dermatitis from psoriasis”, The Journal of Allergy and Clinical Immunology, vol. 119, issue 5, pages 1210-1217, 2007, were followed except for that U133A Plus 2-set Gene Chip probe arrays was used instead of U95A-set Gene Chip probe arrays.
Expression values (threshold cycle [Ct]) were normalized to Rplp0 by negatively transforming the Ct values to −dCt (IL17A was normalized to hARP, as analysed by qPCR). The undetected −dCt values were estimated for each gene as the 20% of the minimum across all samples. qRT-PCR expression data were modelled using a mixed effect model with Visit and Treatment Area as a fixed effect and a random intercept for each patient. This formulation intrinsically models the within patient correlation structure as in the case of a paired t-test. This approach introduces less bias than restricting the analysis for those patients who completed the study. Contrasts were used to estimate the fold changes with treatment within each treatment group and conduct hypothesis testing.

[4] = Day 22, vs vehicle-treated lesion
[5] = Day 22 vs baseline, listed as niclosamide

concentration at 8 day [1]: 0.24 ng/mL
SMILES: O=C(Nc1ccc([N+](=O)[O-])cc1Cl)c1cc(Cl)ccc1O [Niclosamide, niclosamide]
skin thickness [2]: No differences
CAMP expression, Niclosamide vs. Vehicle (qRT-PCR) [3, 4]: −1.33
CCL5 expression, Niclosamide vs. Vehicle (qRT-PCR) [3, 4]: −1.03
CCL17 expression, Niclosamide vs. Vehicle (qRT-PCR) [3, 4]: −1.37
CCL18 expression, Niclosamide vs. Vehicle (qRT-PCR) [3, 4]: −2.02
CCL20 expression, Niclosamide vs. Vehicle (qRT-PCR) [3, 4]: −2.25
CCL22 expression, Niclosamide vs. Vehicle (qRT-PCR) [3, 4]: −1.49
CCL26 expression, Niclosamide vs. Vehicle (qRT-PCR) [3, 4]: −1.49
CXCL1 expression, Niclosamide vs. Vehicle (qRT-PCR) [3, 4]: −1.63
CXCL2 expression, Niclosamide vs. Vehicle (qRT-PCR) [3, 4]: −1.21
CXCL9 expression, Niclosamide vs. Vehicle (qRT-PCR) [3, 4]: 1.16
CXCL10 expression, Niclosamide vs. Vehicle (qRT-PCR) [3, 4]: −1.10
DEFB4A/DEFB4B expression, Niclosamide vs. Vehicle (qRT-PCR) [3, 4]: −2.06
FLG expression, Niclosamide vs. Vehicle (qRT-PCR) [3, 4]: 1.30
FOXP3 expression, Niclosamide vs. Vehicle (qRT-PCR) [3, 4]: −1.14
IFNg expression, Niclosamide vs. Vehicle (qRT-PCR) [3, 4]: 1.19
IL1B expression, Niclosamide vs. Vehicle (qRT-PCR) [3, 4]: −1.01
IL2 expression, Niclosamide vs. Vehicle (qRT-PCR) [3, 4]: −1.36
IL5 expression, Niclosamide vs. Vehicle (qRT-PCR) [3, 4]: −1.47
IL6 expression, Niclosamide vs. Vehicle (qRT-PCR) [3, 4]: −1.24
IL8 expression, Niclosamide vs. Vehicle (qRT-PCR) [3, 4]: −1.46
IL9 expression, Niclosamide vs. Vehicle (qRT-PCR) [3, 4]: −1.17
IL10 expression, Niclosamide vs. Vehicle (qRT-PCR) [3, 4]: −1.51
IL12A expression, Niclosamide vs. Vehicle (qRT-PCR) [3, 4]: 1.09
IL12B expression, Niclosamide vs. Vehicle (qRT-PCR) [3, 4]: −1.42
IL13 expression, Niclosamide vs. Vehicle (qRT-PCR) [3, 4]: −1.59
IL15RA expression, Niclosamide vs. Vehicle (qRT-PCR) [3, 4]: −1.12
IL15 expression, Niclosamide vs. Vehicle (qRT-PCR) [3, 4]: −1.14
IL17A expression, Niclosamide vs. Vehicle (qRT-PCR) [3, 4]: −1.40
IL17C expression, Niclosamide vs. Vehicle (qRT-PCR) [3, 4]: −2.35
IL17F expression, Niclosamide vs. Vehicle (qRT-PCR) [3, 4]: 1.37
IL19 expression, Niclosamide vs. Vehicle (qRT-PCR) [3, 4]: 1.16
IL22 expression, Niclosamide vs. Vehicle (qRT-PCR) [3, 4]: −1.97
IL23A expression, Niclosamide vs. Vehicle (qRT-PCR) [3, 4]: −1.37
IL31 expression, Niclosamide vs. Vehicle (qRT-PCR) [3, 4]: −1.46
IL33 expression, Niclosamide vs. Vehicle (qRT-PCR) [3, 4]: 1.11
KRT16 expression, Niclosamide vs. Vehicle (qRT-PCR) [3, 4]: −1.60
LOR expression, Niclosamide vs. Vehicle (qRT-PCR) [3, 4]: 1.27
MMP12 expression, Niclosamide vs. Vehicle (qRT-PCR) [3, 4]: −1.90
PI3 expression, Niclosamide vs. Vehicle (qRT-PCR) [3, 4]: −1.93
PPL expression, Niclosamide vs. Vehicle (qRT-PCR) [3, 4]: 1.04
S100A7 expression, Niclosamide vs. Vehicle (qRT-PCR) [3, 4]: −2.20
S100A8 expression, Niclosamide vs. Vehicle (qRT-PCR) [3, 4]: −2.02
S100A9 expression, Niclosamide vs. Vehicle (qRT-PCR) [3, 4]: −1.97
S100A12 expression, Niclosamide vs. Vehicle (qRT-PCR) [3, 4]: −2.11
TSLPR expression, Niclosamide vs. Vehicle (qRT-PCR) [3, 4]: −1.36
CAMP expression, Niclosamide vs. Predose (qRT-PCR) ([3]; Day 22 vs baseline): −3.02
CCL5 expression, Niclosamide vs. Predose (qRT-PCR) ([3]; Day 22 vs baseline): −1.22
CCL17 expression, Niclosamide vs. Predose (qRT-PCR) ([3]; Day 22 vs baseline): −2.02
CCL18 expression, Niclosamide vs. Predose (qRT-PCR) ([3]; Day 22 vs baseline): −2.45
CCL20 expression, Niclosamide vs. Predose (qRT-PCR) ([3]; Day 22 vs baseline): −1.96
CCL22 expression, Niclosamide vs. Predose (qRT-PCR) ([3]; Day 22 vs baseline): −1.95
CCL26 expression, Niclosamide vs. Predose (qRT-PCR) ([3]; Day 22 vs baseline): −1.03
CXCL1 expression, Niclosamide vs. Predose (qRT-PCR) ([3]; Day 22 vs baseline): −2.80
CXCL2 expression, Niclosamide vs. Predose (qRT-PCR) ([3]; Day 22 vs baseline): −1.89
CXCL9 expression, Niclosamide vs. Predose (qRT-PCR) ([3]; Day 22 vs baseline): −1.51
CXCL10 expression, Niclosamide vs. Predose (qRT-PCR) ([3]; Day 22 vs baseline): −1.64
DEFB4A/DEFB4B expression, Niclosamide vs. Predose (qRT-PCR) ([3]; Day 22 vs baseline): −4.09
FLG expression, Niclosamide vs. Predose (qRT-PCR) ([3]; Day 22 vs baseline): 1.50
FOXP3 expression, Niclosamide vs. Predose (qRT-PCR) ([3]; Day 22 vs baseline): −1.39
IFNg expression, Niclosamide vs. Predose (qRT-PCR) ([3]; Day 22 vs baseline): −1.11
IL1B expression, Niclosamide vs. Predose (qRT-PCR) ([3]; Day 22 vs baseline): −1.64
IL2 expression, Niclosamide vs. Predose (qRT-PCR) ([3]; Day 22 vs baseline): −1.20
IL5 expression, Niclosamide vs. Predose (qRT-PCR) ([3]; Day 22 vs baseline): −2.38
IL6 expression, Niclosamide vs. Predose (qRT-PCR) ([3]; Day 22 vs baseline): −2.34
IL8 expression, Niclosamide vs. Predose (qRT-PCR) ([3]; Day 22 vs baseline): −3.78
IL9 expression, Niclosamide vs. Predose (qRT-PCR) ([3]; Day 22 vs baseline): −1.91
IL10 expression, Niclosamide vs. Predose (qRT-PCR) ([3]; Day 22 vs baseline): −1.85
IL12A expression, Niclosamide vs. Predose (qRT-PCR) ([3]; Day 22 vs baseline): −1.01
IL12B expression, Niclosamide vs. Predose (qRT-PCR) ([3]; Day 22 vs baseline): −2.01
IL13 expression, Niclosamide vs. Predose (qRT-PCR) ([3]; Day 22 vs baseline): −2.06
IL15RA expression, Niclosamide vs. Predose (qRT-PCR) ([3]; Day 22 vs baseline): −1.46
IL15 expression, Niclosamide vs. Predose (qRT-PCR) ([3]; Day 22 vs baseline): −1.47
IL17A expression, Niclosamide vs. Predose (qRT-PCR) ([3]; Day 22 vs baseline): −2.23
IL17C expression, Niclosamide vs. Predose (qRT-PCR) ([3]; Day 22 vs baseline): −3.24
IL17F expression, Niclosamide vs. Predose (qRT-PCR) ([3]; Day 22 vs baseline): 1.02
IL19 expression, Niclosamide vs. Predose (qRT-PCR) ([3]; Day 22 vs baseline): −3.26
IL22 expression, Niclosamide vs. Predose (qRT-PCR) ([3]; Day 22 vs baseline): −2.86
IL23A expression, Niclosamide vs. Predose (qRT-PCR) ([3]; Day 22 vs baseline): −2.13
IL31 expression, Niclosamide vs. Predose (qRT-PCR) ([3]; Day 22 vs baseline): −1.85
IL33 expression, Niclosamide vs. Predose (qRT-PCR) ([3]; Day 22 vs baseline): −1.08
KRT16 expression, Niclosamide vs. Predose (qRT-PCR) ([3]; Day 22 vs baseline): −3.88
LOR expression, Niclosamide vs. Predose (qRT-PCR) ([3]; Day 22 vs baseline): 1.67
MMP12 expression, Niclosamide vs. Predose (qRT-PCR) ([3]; Day 22 vs baseline): −3.27
PI3 expression, Niclosamide vs. Predose (qRT-PCR) ([3]; Day 22 vs baseline): −4.52
PPL expression, Niclosamide vs. Predose (qRT-PCR) ([3]; Day 22 vs baseline): −1.07
S100A7 expression, Niclosamide vs. Predose (qRT-PCR) ([3]; Day 22 vs baseline): −3.04
S100A8 expression, Niclosamide vs. Predose (qRT-PCR) ([3]; Day 22 vs baseline): −3.85
S100A9 expression, Niclosamide vs. Predose (qRT-PCR) ([3]; Day 22 vs baseline): −3.47
S100A12 expression, Niclosamide vs. Predose (qRT-PCR) ([3]; Day 22 vs baseline): −4.29
TSLPR expression, Niclosamide vs. Predose (qRT-PCR) ([3]; Day 22 vs baseline): −1.82
FLG expression, Niclosamide vs. Predose (qRT-PCR) [3, 5]: increased significantly
LOR expression, Niclosamide vs. Predose (qRT-PCR) [3, 5]: increased significantly
